{
  "source": "ChEMBL document CHEMBL1201862",
  "about": "“PubChem BioAssay data set” (2004)",
  "key": {"cells": {"assay": "cells", "assay_type": "functional, cell-based", "conditions": "HEK-CNG"}, "Galanin receptor type 3": {"biological_target": "T1, Galanin receptor type 3 (Homo sapiens, UniProt O60755)", "T1 sequence (O60755 whole entry)": "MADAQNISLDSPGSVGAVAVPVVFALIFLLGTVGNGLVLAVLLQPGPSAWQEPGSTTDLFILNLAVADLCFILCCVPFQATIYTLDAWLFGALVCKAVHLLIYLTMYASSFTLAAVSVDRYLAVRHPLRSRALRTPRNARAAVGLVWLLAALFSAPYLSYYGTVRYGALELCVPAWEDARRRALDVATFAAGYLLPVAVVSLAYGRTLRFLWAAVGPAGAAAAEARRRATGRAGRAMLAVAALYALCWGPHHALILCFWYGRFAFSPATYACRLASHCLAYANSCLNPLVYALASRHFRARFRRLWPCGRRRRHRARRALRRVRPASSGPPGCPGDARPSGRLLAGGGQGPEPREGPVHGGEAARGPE", "assay": "Fluorescence-based cell-based primary high throughput dose response assay to identify antagonists of the Galanin Receptor 3 (GalR3).", "assay_type": "functional"}, "Protein RecA": {"biological_target": "T2, Protein RecA (Mycobacterium tuberculosis, UniProt P9WHJ3)", "T2 sequence (P9WHJ3 whole entry)": "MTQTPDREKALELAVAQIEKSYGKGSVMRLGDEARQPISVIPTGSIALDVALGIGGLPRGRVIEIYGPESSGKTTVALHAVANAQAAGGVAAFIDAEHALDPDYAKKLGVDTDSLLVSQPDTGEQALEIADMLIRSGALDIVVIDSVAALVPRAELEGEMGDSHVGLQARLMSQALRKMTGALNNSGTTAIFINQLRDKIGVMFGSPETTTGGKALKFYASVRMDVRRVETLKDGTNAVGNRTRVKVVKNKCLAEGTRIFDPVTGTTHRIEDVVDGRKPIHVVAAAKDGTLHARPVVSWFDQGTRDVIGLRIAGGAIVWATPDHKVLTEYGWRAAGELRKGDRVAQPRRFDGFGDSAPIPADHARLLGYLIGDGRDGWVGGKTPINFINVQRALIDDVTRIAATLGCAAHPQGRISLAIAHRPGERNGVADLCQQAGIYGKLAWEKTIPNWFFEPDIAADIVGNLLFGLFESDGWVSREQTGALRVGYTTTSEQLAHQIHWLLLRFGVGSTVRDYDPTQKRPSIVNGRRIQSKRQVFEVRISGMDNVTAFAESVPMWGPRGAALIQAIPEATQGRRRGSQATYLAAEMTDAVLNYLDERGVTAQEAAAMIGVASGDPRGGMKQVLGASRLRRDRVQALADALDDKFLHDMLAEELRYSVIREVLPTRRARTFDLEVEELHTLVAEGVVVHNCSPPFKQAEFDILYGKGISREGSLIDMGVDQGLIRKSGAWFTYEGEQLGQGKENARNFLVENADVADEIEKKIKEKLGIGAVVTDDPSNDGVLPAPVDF", "assay": "Fluorescence Cell-Free Homogeneous Dose Retest to Identify Inhibitors of RecA-Intein Splicing Activity. [Related pubchem assays (depositor defined):AID2097, AID2223, AID489010, AID492950]", "assay_type": "functional"}, "[1]": {"biological_target": "T3, Replicative DNA helicase DnaB (Mycobacterium tuberculosis, UniProt P9WMR3)", "T3 sequence (P9WMR3 whole entry)": "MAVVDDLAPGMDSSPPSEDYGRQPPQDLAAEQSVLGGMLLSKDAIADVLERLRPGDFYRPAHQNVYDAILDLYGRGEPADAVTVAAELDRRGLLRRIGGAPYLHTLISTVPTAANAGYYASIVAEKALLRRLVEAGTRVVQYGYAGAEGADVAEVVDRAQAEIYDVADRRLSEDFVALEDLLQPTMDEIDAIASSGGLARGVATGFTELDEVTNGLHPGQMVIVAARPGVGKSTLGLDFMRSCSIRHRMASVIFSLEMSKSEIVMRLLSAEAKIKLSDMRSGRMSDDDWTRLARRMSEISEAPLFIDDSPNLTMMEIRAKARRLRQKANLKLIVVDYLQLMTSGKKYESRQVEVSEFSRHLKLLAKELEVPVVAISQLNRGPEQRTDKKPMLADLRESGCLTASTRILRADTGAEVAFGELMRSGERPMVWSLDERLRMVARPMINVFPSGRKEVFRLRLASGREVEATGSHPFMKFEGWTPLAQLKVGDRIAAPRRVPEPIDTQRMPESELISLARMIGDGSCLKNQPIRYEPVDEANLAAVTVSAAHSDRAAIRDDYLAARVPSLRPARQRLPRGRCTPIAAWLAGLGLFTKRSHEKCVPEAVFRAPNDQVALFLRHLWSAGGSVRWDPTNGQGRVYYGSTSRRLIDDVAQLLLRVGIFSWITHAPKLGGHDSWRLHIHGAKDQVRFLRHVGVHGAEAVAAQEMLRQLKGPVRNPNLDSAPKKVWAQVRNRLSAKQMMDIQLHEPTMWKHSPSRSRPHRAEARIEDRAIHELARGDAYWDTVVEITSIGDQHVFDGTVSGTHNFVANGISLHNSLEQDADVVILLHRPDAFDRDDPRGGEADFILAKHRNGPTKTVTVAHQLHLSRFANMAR", "assay": "DnaB intein splicing inhibitors, dose response, biochemical, cell-free fluorescence (AID 449749)", "assay_type": "functional"}, "[2]": {"assay": "HGIII-sPLA2 enzyme inhibition potency – biochemical, QFRET, IC50, dose response (AID 743457);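 also: green fluorescence rise as the enzyme cleaves BODIPY PC-A2 in liposomes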"}, "INS1": {"test_system": "INS1", "assay": "INS-1E survival protection against cytokine death – cell-based, luminescence, retest, dose response (AID 449756);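 also: cell death triggered by IL-1 beta plus TNF-alpha plus IFN-gamma mixture; protective hits raise ATP signal compared with cytokine alone wells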", "assay_type": "functional", "conditions": "Rattus norvegicus"}, "fMet-Leu-Phe receptor": {"biological_target": "T4, fMet-Leu-Phe receptor (Homo sapiens, UniProt P21462)", "T4 sequence (P21462 whole entry)": "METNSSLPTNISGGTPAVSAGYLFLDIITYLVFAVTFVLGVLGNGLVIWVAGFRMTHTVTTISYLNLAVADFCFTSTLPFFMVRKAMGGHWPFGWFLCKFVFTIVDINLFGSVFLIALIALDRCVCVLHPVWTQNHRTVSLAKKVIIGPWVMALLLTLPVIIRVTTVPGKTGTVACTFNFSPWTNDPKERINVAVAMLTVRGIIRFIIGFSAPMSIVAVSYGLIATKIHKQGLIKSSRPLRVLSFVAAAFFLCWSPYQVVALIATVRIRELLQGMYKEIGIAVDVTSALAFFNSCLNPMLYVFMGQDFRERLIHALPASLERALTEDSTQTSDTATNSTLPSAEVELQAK", "assay": "formyl peptide receptor binders – dose response (AID 519)", "assay_type": "functional"}, "Nonstructural protein 1": {"biological_target": "Nonstructural protein 1 (Influenza A virus, UniProt Q194T2)", "sequence (Q194T2 whole entry)": "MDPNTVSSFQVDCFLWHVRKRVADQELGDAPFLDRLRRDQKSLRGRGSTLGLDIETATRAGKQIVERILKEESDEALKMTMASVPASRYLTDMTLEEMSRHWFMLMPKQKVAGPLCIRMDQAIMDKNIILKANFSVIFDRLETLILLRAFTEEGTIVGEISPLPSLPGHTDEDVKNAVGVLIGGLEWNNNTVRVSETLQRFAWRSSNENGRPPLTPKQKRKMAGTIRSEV", "assay_type": "functional, Influenza A virus (A/California/07/2009(H1N1))"}, "[3]": {"biological_target": "T5, Rac GTPase-activating protein 1 (Homo sapiens, UniProt Q9H0H5)", "T5 sequence (Q9H0H5 whole entry)": "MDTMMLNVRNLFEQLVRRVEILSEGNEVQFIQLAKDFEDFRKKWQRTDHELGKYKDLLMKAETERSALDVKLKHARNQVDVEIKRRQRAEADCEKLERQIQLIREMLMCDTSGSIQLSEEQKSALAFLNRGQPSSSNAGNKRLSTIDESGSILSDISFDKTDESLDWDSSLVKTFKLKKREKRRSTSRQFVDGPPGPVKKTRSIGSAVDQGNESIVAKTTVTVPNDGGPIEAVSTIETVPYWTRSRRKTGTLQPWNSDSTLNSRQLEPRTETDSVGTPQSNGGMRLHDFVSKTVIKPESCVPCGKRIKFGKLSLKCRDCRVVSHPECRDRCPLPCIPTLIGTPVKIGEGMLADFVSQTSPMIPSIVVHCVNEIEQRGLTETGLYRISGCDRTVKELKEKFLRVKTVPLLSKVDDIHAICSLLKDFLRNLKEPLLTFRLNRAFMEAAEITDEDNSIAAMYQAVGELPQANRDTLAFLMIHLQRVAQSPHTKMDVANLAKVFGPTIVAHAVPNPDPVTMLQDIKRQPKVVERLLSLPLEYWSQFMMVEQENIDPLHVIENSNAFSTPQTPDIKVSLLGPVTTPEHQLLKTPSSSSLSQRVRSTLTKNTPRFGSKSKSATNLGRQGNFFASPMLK", "assay": "blockers of MgcRacGAP-driven Rac1 GTP hydrolysis – biochemical, ADP Hunter fluorescence, primary and confirmatory, confirmation (AID 624330)", "assay_type": "functional"}},
  "note": "Calls of active or inactive are those of the source.",
  "data": [
    {"smiles": "COCCn1c(SCCCC(=O)c2ccc(Br)cc2)nnc1-c1ccncc1", "values": [
      {"measurement": "EC50", "setting": "cells", "value": "> 29.9 µM (inactive)"},
      {"measurement": "IC50", "setting": "Galanin receptor type 3", "value": "5.94 µM (active)"}
    ]},
    {"smiles": "Cc1onc(-c2ccccc2)c1-c1nc2ccccc2c(=O)o1", "values": [
      {"measurement": "EC50", "setting": "Protein RecA", "value": "1.11 µM (active)"},
      {"measurement": "EC50", "setting": "cells", "value": "> 29.9 µM (inactive)"},
      {"measurement": "IC50", "setting": "Galanin receptor type 3", "value": "> 29.9 µM (inactive)"},
      {"measurement": "AC50", "setting": "[1]", "value": "1.31 µM (active)"}
    ]},
    {"smiles": "Cc1ccc(C(=O)NC(=S)/C=C2\\N(C)c3ccccc3C2(C)C)cc1", "values": [
      {"measurement": "IC50", "setting": "[2]", "value": "> 122 µM (inactive)"},
      {"measurement": "AC50", "setting": "INS1", "value": "2.33 µM (active)"}
    ]},
    {"smiles": "COc1cc(C2C(C(=O)c3ccc(C)o3)=C(O)C(=O)N2Cc2cccnc2)ccc1O", "note": "(configuration not stated)", "values": [
      {"measurement": "Ki", "setting": "fMet-Leu-Phe receptor", "value": "> 66.7 µM (inactive)"}
    ]},
    {"smiles": "CCOC(=O)CCN(c1ccccc1)S(=O)(=O)c1ccc(-c2ccc(O)nn2)s1", "values": [
      {"measurement": "EC50", "setting": "cells", "value": "> 29.9 µM (inactive)"},
      {"measurement": "IC50", "setting": "Galanin receptor type 3", "value": "4.41 µM (active)"}
    ]},
    {"smiles": "COc1cc(OC)c(C2Nc3cccc4cccc(c34)N2)c(OC)c1", "values": [
      {"measurement": "IC50", "setting": "Nonstructural protein 1", "value": "> 100 µM (active)"},
      {"measurement": "IC50", "setting": "[2]", "value": "83.1 µM (inactive)"},
      {"measurement": "IC50", "setting": "[3]", "value": "65.2 µM (active)"}
    ]},
    {"smiles": "CSCCC1C(C#N)=C(N)Oc2[nH]nc(-c3cccs3)c21", "note": "(configuration not stated)", "values": [
      {"measurement": "EC50", "setting": "Protein RecA", "value": "1.43 µM (active)"},
      {"measurement": "AC50", "setting": "[1]", "value": "3.12 µM (active)"},
      {"measurement": "Ki", "setting": "fMet-Leu-Phe receptor", "value": "> 66.7 µM (inactive)"}
    ]}
  ]
}
